Patent US7499847B2, “Crystalline VAP-1 and uses thereof” (Biotie Therapies Corporation, priority 2003, dated 2009)

Columns and labels:
[1] = target: T1, Recombinant human VAP-1 SSAO (Homo sapiens, UniProt Q16853); experiment: VAP-1 SSAO activity, coupled colourimetric assay (benzylamine substrate); format: biochemical; conditions: for IC50: CHO cell lysate with recombinant human VAP-1 SSAO, 1 mM benzylamine, 1 h at 37° C., read-out: VAP-1 SSAO inhibitory activity IC50; for Selectivity for VAP-1 SSAO over MAO: ratio of total rat MAO IC50 to human VAP-1 SSAO IC50
T1 construct: expressed in transfected cells; host or cells: CHO cells (clarified NP40 lysate used directly)
T1 sequence (Q16853 1-763): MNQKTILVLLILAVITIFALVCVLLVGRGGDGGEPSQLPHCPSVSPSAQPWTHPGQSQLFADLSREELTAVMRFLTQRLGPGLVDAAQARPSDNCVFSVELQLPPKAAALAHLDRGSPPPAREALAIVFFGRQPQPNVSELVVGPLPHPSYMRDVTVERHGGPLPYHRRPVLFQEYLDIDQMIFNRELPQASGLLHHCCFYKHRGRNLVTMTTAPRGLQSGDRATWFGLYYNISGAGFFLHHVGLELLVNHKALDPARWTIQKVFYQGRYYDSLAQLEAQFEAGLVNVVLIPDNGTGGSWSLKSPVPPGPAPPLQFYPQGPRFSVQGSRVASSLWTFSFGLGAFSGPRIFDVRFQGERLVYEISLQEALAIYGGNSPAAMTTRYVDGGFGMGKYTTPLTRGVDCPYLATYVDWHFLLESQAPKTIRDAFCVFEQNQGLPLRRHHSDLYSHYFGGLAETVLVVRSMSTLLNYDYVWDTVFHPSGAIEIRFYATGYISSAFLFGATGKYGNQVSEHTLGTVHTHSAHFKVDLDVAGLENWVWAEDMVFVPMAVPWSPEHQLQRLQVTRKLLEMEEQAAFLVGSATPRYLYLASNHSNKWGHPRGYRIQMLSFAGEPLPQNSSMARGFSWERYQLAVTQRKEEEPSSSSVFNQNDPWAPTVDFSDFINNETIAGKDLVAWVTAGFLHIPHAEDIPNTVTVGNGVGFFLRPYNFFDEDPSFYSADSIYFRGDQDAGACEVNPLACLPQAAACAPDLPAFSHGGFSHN
Description: VAP-1 SSAO activity was measured using the coupled colourimetric method essentially as described for monoamine oxidase and related enzymes. Recombinant human VAP-1 SSAO expressed in Chinese Hamster Ovary (CHO) cells was used as a source of VAP-1 SSAO for activity measurements. Native CHO cells have negligible SSAO activity. These cells and their culture have previously been described (Smith D J et al., 1998).
A cell lysate was prepared by suspending approximately 3.6×10^8 cells in 25 ml lysis buffer (150 mM NaCl, 10 mM Tris-Base pH 7.2, 1.5 mM MgCl2, 1% NP40) and incubating at 4° C. overnight on a rotating table. The lysate was clarified by centrifugation at 18000 g for 5 min at room temperature and the supematant used directly in the assay.
The VAP-1 SSAO assay was performed in 96 well microtitre plates as follows. To each well was added a predetermined amount of inhibitor if required. The amount of inhibitor varied in each assay but was generally at a final concentration of between 1 nM and 50 μM. Controls lacked inhibitor. The inhibitor was in a total volume of […] in water. The following reagents were then added. 0.2M potassium phosphate buffer pH 7.6 to a total reaction volume of 200 μl, 45 μl of freshly made chromogenic solution containing 1 mM 2,4-dichlorophenol, 500 μM 4-aminoantipyrine and 4 U/ml horseradish peroxidase and an amount of CHO cell lysate containing VAP-1 SSAO that caused a change of 0.6 A490 per h. This was within the linear response range of the assay.
The plates were incubated for 30 min at 37° C. and the background absorbance measured at 490 nm using a Wallac Victor II multilabel counter. To initiate the enzyme reaction 20 μl 10 mM benzylamine (final concentration=1 mM) was added and the plate incubated for 1 h at 37° C.
The increase in absorbance, reflecting VAP-1 SSAO activity, was measured at 490 nm. Inhibition was presented as percent inhibition compared to control after correcting for background absorbance and IC50. values calculated using GraphPad Prism.

[2] = test system: T2, Total rat MAO (rat liver mitochondrial preparate); experiment: Total rat MAO activity, colourimetric assay (tyramine substrate); format: biochemical; conditions: rat liver MAO preparation, 0.5 mM tyramine, 1 h at 37° C.; read-out: Total MAO inhibitory activity IC50
T2 construct: Rat MAO was prepared from rat liver; Mitochondrial preparate was aliquoted and stored at −70° C
Description: Rat MAO was prepared from rat liver by rinsing a 1 g liver sample several times in 14 ml KCl-EDTA-solution to remove all blood. Then 1 g liver sample was homogenised in 4 ml ice-cold potassium phosphate buffer (0.1 M, pH 7.4) with an Ultra-Turrax homogeniser (setting 11 000 rpm, 4×10 s). After centrifugation at 500 g for 10 min at 4° C. the supematant was carefully withdrawn and was centrifuged at 12 300 g for 15 min at 4° C. The supernatant was discharged and sedimented mitochondria were resuspended in 4 ml fresh phosphate buffer and centrifuged as previously. The mitochondria were suspended in 4 ml phosphate buffer and homogenized with an Ultra-Turrax homogeniser (setting 11 000 rpm, 2×10 s). Mitochondrial preparate was aliquoted and stored at −70° C. […] To each well was added a predetermined amount of inhibitor if required. The amount of inhibitor varied in each assay but was generally at a final concentration of between 10 nM and […]. Controls lacked inhibitor. […] The plates were incubated for 30 min at 37° C. and the background absorbance measured at 490 nm using a Wallac Victor II multilabel counter. To initiate the enzyme reaction 20 μl of 5 mM tyramine (final concentration 0.5 mM) was added and the plate incubated for 1 h at 37° C. The increase in absorbance, reflecting MAO activity, was measured at 490nm. Inhibition was presented as percent inhibition compared to control after correcting for background absorbance and IC50 values calculated using GraphPad Prism. Clorgyline and pargyline (inhibitors of MAO-A and -B respectively) at 0.5 μM were added to some wells as positive controls for MAO inhibition.

SMILES | IC50 [1] | Selectivity for VAP-1 SSAO over MAO [1] | IC50 [2]
COC(COc1ccc(C)cc1)CN(C)N.O=C(O)/C=C/C(=O)O (stereo not drawn) [Compound 7] | 440 nM | 14 | 6000 nM
CN(N)CC(O)COc1ccccc1.O=C(O)/C=C\C(=O)O (stereo not drawn) [Compound 1] | 370 nM | 35 | 13000 nM
CN(N)CC(O)COc1cccc2ccccc12.O=C(O)/C=C\C(=O)O (stereo not drawn) [Compound 8] | 650 nM | 15 | 10000 nM
Cc1ccccc1OCC(O)CN(C)N.O=C(O)/C=C/C(=O)O (stereo not drawn) [Compound 2] | 520 nM | 17 | 8700 nM
COc1ccc(OCC(O)CNNc2ccccc2)cc1.Cl (stereo not drawn) [Compound 6] | 90 nM | 37 | 3300 nM
COC(COc1ccc(Cl)cc1)CN(C)N.O=C(O)/C=C/C(=O)O (stereo not drawn) [Compound 3] | 260 nM | 13 | 3300 nM
COC(COc1cccc2ccccc12)CN(C)N.O=C(O)/C=C\C(=O)O (stereo not drawn) [Compound 5] | 520 nM | 8 | 4000 nM
Cc1ccc(OCC(O)CN(C)N)cc1.O=C(O)/C=C/C(=O)O (stereo not drawn) [Compound 4] | 430 nM | 23 | 10000 nM

Results, then the compound that gave them:

IC50 [1] | Selectivity for VAP-1 SSAO over MAO [1] | IC50 [2] | SMILES
350 nM | 21 | 7400 nM | COc1ccc(OCC(O)CN(C)N)cc1.O=C(O)/C=C\C(=O)O (stereo not drawn) [Compound 16]
550 nM | 11 | 6000 nM | CN(N)CC(O)COc1ccc2ccccc2c1.O=C(O)/C=C/C(=O)O (stereo not drawn) [Compound 10]
200 nM | 45 | 8800 nM | CN(N)CC(O)CN(C)c1ccccc1.O=C(O)/C=C/C(=O)O (stereo not drawn) [Compound 19]
370 nM | 9 | 3400 nM | COC(CSc1ccccc1)CN(C)N.O=C(O)/C=C/C(=O)O (stereo not drawn) [Compound 14]
270 nM | 41 | 11000 nM | CN(N)CC(O)CSc1ccccc1.O=C(O)/C=C/C(=O)O (stereo not drawn) [Compound 11]
330 nM | 112 | 37000 nM | COc1cccc(OCC(O)CN(C)N)c1.O=C(O)/C=C/C(=O)O (stereo not drawn) [Compound 12]
430 nM | 14 | 6100 nM | CN(N)CC(O)COc1ccc(Cl)cc1.O=C(O)/C=C/C(=O)O (stereo not drawn) [Compound 17]
640 nM | 5 | 3300 nM | COC(COc1ccc2ccccc2c1)CN(C)N.O=C(O)/C=C/C(=O)O (stereo not drawn) [Compound 13]
340 nM | 28 | 9600 nM | COC(CN(C)N)CN(C)c1ccccc1.O=C(O)/C=C/C(=O)O (stereo not drawn) [Compound 20]
210 nM | 195 | 41000 nM | COc1ccc(SCC(O)CN(C)N)cc1OC.O=C(O)/C=C/C(=O)O (stereo not drawn) [Compound 9]
